Results from patent US20230295157A1, “3-(1H-IMIDAZOL-2-YL)-2,3,8,8A-TETRAHYDROINDOLIZIN-5(1H)-ONE DERIVATIVES USEFUL AS FACTOR XIA INHIBITORS” (JANSSEN PHARMACEUTICA NV, priority 2020, published 2023).
Read-outs that look alike come from different tables or passages of the source.

Assays:
human plasma kallikrein = human plasma kallikrein (Homo sapiens (Human), UniProt P03952); test: Kallikrein inhibition assay (FLINT) utilizing a quenched AMC peptide substrate; type: biochemical; settings: 30 min preincubation, kinetic reads over 30 min, Z-Gly-Pro-Arg-AMC substrate 50 μM; read-out: Kallikrein Kin Inh IC50
Protocol: Biological Example 2: Kallikrein Inhibition Assay Utilizing a Quenched AMC Peptide Substrate A fluorescence intensity (FLINT) based assay was used to monitor inhibition of human plasma kallikrein.
The Kallikrein FLINT assay was used with the following Z-Gly-Pro-Arg-AMC assay buffer: 50 mM Tris, pH 7.5, 100 mM NaCl, 5 mM CaCl2), 0.1 mg/mL BSA, 0.03% CHAPS. Assay buffer was prepared by mixing all ingredients fresh. 2×Z-Gly-Pro-Arg-AMC peptide substrate was prepared by diluting 10 mM stock into 1×assay buffer for a 100 μM working concentration (50 μM final concentration). The 2×kallikrein stock solution was prepared by diluting 14.76 μM stock in 1×assay buffer for a 4 nM working stock solution (2 nM final concentration).
Test compound(s) were run in an 11-point, 3-fold serial dilution with a final top compound concentration of 1 μM. Final DMSO in assay was 2%. Plasma kallikrein was pre-incubated for 30-minute with compound and then 50 μM substrate was added to initiate the reaction. The assay was run with kinetic (KIN) reads at 5 min intervals over 30 minutes. […] More specifically, the assay was run as follows: • 100 nL of 0.1 mM test compound was dispensed into black 384-well non-binding Greiner BioOne 784900 plate for 1 μM final concentration; • 5 μL of 1×assay buffer was dispensed to columns 24 (low control) and 5 μL 2×human kallikrein enzyme solution was dispensed to columns 1-23 (column 23 high control); • the plate was centrifuged with a “cover” plate at 500 rpm for 1 min • the plate was pre-incubated for 30 minutes at room temperature with plate covered; • 5 μL of 2×Z-Gly-Pro-Arg-AMC peptide substrate was dispensed into the entire plate, columns 1-24; • the plate was centrifuged with a “cover” plate at 500 rpm for 1 min; • the plate was read monitoring fluorescence intensity on the BMG PHERAStar at room temperature, using fluorescence module 340 nm/440 nm.
(§1) Percent inhibition (IC50) curves were generated per compound tested, and data was analyzed using a 4-parameter logistic fit using GeneData Screener. The relative fluorescence unit (RFU) values were normalized to percent inhibition using the following equation:
% inhibition=((HC-LC)−(compound-LC)\(HC-LC))*100 where LC—low control=mean signal of human kallikrein enzyme or 100% inhibition of human kallikrein enzyme; HC—high control=mean signal of Factor XIa+Z-Gly-Pro-Arg-AMC peptide substrate with DMSO only.
(§2) An 11-point dose response curve for the test compound(s) was generated using GENDATA to determine IC50 value based on the following equation:
Y=Bottom+(Top-Bottom)/(1+10^((logIC50−X)*HillSlope)) where Y is the % inhibition in the presence of X inhibitor concentration, Top=high control=mean signal of human kallikrein enzyme+Z-Gly-Pro-Arg-AMC peptide substrate with DMSO only; Bottom=low control−mean signal of no human kallikrein enzyme or 100% inhibition of human kallikrein enzyme; HillSlope—Hill coefficient; and IC50=concentration of compound with 50% inhibition in relation to top/high control.

Factor XIa = Factor XIa (Homo sapiens (Human), UniProt P03951); test: Factor XIa inhibition assay (FLINT) utilizing a fluorophore-quencher pair peptide substrate; type: biochemical; settings: 30 min preincubation, kinetic reads over 30 min, read-out: FXIa Kin Inh IC50
Text: Biological Example 1: Factor XIa Inhibition Assay Utilizing a Fluorophore-Quencher Pair Peptide Substrate
A fluorescence intensity (FLINT) based assay was used to monitor inhibition of Factor XIa. The peptide substrate, 5Fam-[…]-K5Tamra (purchased from New England Peptide) was chosen based on the FXI sequence. Conversion of zymogen […]. The custom peptide used in this assay was based on the Arg146 cleavage site of FXI. The peptide substrate was designed with a fluorophore-quencher pair, where the fluorescence is quenched until FXIa cleaves the 8-mer peptide after the Arg residue.
The Factor XIa FLINT assay was used with the following 5Fam-[…]-K5Tamra assay buffer: 50 mM Tris, pH 7.5, 100 mM NaCl, 5 mM CaCl2), 0.1 mg/mL BSA, 0.03% CHAPS. Assay buffer was prepared by mixing all ingredients fresh. 5Fam-[…]-K5Tamra peptide substrate was first prepared at 10 mM in 100% DMSO, then diluted to 3 mM in 100% DMSO. Assay buffer was then added directly to the 3 mM stock of substrate to prepare the 30 μM 2× working concentration (15 μM final concentration). The 2×Factor XIa stock solution was prepared by diluting 6.562 μM stock in 1×assay buffer for a 200 μM working stock solution (100 μM final concentration).
Test compound(s) were run in an 11-point, 3-fold serial dilution with a final top compound concentration of 100 nM. Final DMSO in assay was 2%. FXIa was preincubated with compound for 30-minutes and then substrate was added to initiate the reaction. The assay was run with kinetic (KIN) reads at 5 min intervals over 30 minutes. The time course was linear using 100 μM FXIa greater than 30 minutes. More specifically, the assay was run as follows: • 100 nL of 0.01 mM test compound was dispensed into black 384 well non-binding Greiner BioOne 784900 plate for 0.1 μM final concentration; • 5 μL of 1×assay buffer was dispensed to column 24 (low control) and 5 μL 2×Factor XIa solution was dispensed to columns 1-23 (column 23 high control); • the plate was centrifuged with a “cover” plate at 500 rpm for 1 min • the plate was pre-incubated for 30 minutes at room temperature with plate covered; • 5 μL of 2×5Fam-[…]-K5Tamra peptide substrate was dispensed into the entire plate, columns 1-24; • the plate was centrifuged with a “cover” plate at 500 rpm for 1 min; • the plate was read monitoring fluorescence intensity on the BMG PHERAStar at room temperature, using fluorescence module 485 nm/520 nm.
as §1
% inhibition=((HC-LC)−(compound−LC)/(HC-LC))*100
where LC—low control=mean signal of no Factor XIa or 100% inhibition of Factor XIa; HC—high control=mean signal of Factor XIa+5Fam-[…]-K5Tamra peptide substrate with DMSO only.
as §2
Y=Bottom+(Top-Bottom)/(1+10^((logIC50-X)*HillSlope))
where Y is the % inhibition in the presence of X inhibitor concentration, Top=high control=mean signal of Factor XIa+5Fam-[…] K5Tamra peptide substrate with DMSO only; Bottom=low control−mean signal of no Factor XIa or 100% inhibition of Factor XIa; HillSlope—Hill coefficient; and IC50=concentration of compound with 50% inhibition in relation to top/high control.
Representative compounds of the present invention were tested according to the procedure described in Biological Example 1 and Biological Example 2 above, with results as listed in Table 3, below.

[1] = 5Fam-KLTRAETV-K5Tamra substrate 15 μM

Sequence of Factor XIa (P03951 388-625): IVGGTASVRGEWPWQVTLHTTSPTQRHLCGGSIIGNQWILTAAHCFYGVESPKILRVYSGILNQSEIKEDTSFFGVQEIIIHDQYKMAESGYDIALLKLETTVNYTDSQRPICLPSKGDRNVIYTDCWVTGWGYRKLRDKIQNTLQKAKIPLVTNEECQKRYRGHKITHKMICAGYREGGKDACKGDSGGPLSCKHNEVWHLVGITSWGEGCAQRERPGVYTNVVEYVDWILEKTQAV
Sequence of Factor XIa (P03951 19-387 partner): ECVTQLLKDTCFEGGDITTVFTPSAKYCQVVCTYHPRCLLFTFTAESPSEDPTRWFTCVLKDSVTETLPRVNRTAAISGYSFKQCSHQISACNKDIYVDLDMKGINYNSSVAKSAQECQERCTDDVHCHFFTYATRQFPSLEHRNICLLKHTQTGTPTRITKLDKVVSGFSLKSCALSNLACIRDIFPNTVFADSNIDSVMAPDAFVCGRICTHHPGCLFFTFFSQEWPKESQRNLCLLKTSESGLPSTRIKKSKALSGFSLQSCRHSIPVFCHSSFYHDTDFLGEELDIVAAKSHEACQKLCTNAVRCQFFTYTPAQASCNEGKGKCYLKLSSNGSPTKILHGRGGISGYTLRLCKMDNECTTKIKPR
Sequence of human plasma kallikrein (P03952 391-638): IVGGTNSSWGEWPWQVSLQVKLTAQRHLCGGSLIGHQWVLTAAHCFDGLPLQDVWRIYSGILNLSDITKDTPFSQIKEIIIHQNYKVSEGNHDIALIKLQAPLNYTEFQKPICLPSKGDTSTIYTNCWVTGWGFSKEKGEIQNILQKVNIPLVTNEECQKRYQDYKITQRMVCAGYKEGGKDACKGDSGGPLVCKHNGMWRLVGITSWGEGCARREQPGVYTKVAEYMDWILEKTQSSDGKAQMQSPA
Sequence of human plasma kallikrein (P03952 20-390 partner): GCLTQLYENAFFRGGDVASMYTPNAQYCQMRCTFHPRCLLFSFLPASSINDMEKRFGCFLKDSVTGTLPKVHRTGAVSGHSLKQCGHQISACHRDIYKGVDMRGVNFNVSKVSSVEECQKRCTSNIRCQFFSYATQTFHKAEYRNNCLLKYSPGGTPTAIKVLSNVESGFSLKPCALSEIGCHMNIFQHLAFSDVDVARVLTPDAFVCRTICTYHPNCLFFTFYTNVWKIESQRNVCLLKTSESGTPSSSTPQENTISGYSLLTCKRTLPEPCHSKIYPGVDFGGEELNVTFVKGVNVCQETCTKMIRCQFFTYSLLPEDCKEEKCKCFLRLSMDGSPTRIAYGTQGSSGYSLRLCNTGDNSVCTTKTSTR

Structure (SMILES)	IC50 (human plasma kallikrein) [nM]	IC50 (Factor XIa; [1]) [nM]	IC50 (Factor XIa; 5Fam-[…]-K5Tamra substrate 15 μM) [nM]
NC(=O)c1ncc(-c2c[nH]c([C@@H]3CC[C@@H]4CC(c5c(-n6cnnn6)ccc(Cl)c5F)=CC(=O)N43)n2)s1 [Example 205, 5-(2-((3S,8aR)-7-(3-Chloro-2-fluoro-6-(1H-tetrazol-1-yl)phenyl)-5-oxo-1,2,3,5,8,8a-hexahydroindolizin-3-yl)-1H-imidazol-4-yl)thiazole-2-carboxamide]	12.5	3.3	–
CC(C)(O)COc1nccc(-c2cnc([C@@H]3CC[C@@H]4CC(c5c(-n6cnnn6)ccc(Cl)c5F)=CC(=O)N43)[nH]2)c1F [Example 166, (3S,8aR)-7-[3-chloro-2-fluoro-6-(tetrazol-1-yl)phenyl]-3-[5-[3-fluoro-2-(2-hydroxy-2-methyl-propoxy)-4-pyridyl]-1H-imidazol-2-yl]-2,3,8,8a-tetrahydro-1H-indolizin-5-one]	6.6	0.8	–
NC(=O)c1cc(-c2cnc([C@@H]3CC[C@@H]4CC(c5c(-n6cnnn6)ccc(Cl)c5F)=CC(=O)N43)[nH]2)ccc1F [Example 233, 5-(2-((3S,8aR)-7-(3-chloro-2-fluoro-6-(1H-tetrazol-1-yl)phenyl)-5-oxo-1,2,3,5,8,8a-hexahydroindolizin-3-yl)-1H-imidazol-5-yl)-2-fluorobenzamide]	6.7	24.2	–
CCOC(=O)NCc1nccc(-c2cnc([C@@H]3CC[C@@H]4CC(c5c(-n6cnnn6)ccc(Cl)c5F)=CC(=O)N43)[nH]2)c1F [Example 12, Ethyl-N-[[4-[2-[(3S,8aR)-7-[3-Chloro-2-fluoro-6-(tetrazol-1-yl)phenyl]-5-oxo-2,3,8,8a-tetrahydro-1H-indolizin-3-yl]-1H-imidazol-5-yl]-3-fluoro-2-pyridyl]methyl]carbamate]	35.5	2.7	–
Cc1c(-c2cnc([C@@H]3CCC4CC(c5c(-n6cnnn6)ccc(Cl)c5F)=CC(=O)N43)[nH]2)ccnc1N (stereo partly drawn) [Example 21, (3S)-3-(5-(2-Amino-3-methylpyridin-4-yl)-1H-imidazol-2-yl)-7-(3-chloro-2-fluoro-6-(1H-tetrazol-1-yl)phenyl)-2,3,8,8a-tetrahydroindolizin-5(1H)-one]	65.5	6.3	–
O=C1C=C(c2cc(Cl)ccc2-n2cnnn2)C[C@H]2CC[C@@H](c3ncc(-c4ccc(NC56CC(C5)C6)nc4F)[nH]3)N12 [Example 83]	57.5	17.4	–
O=C1C=C(c2c(-n3cnnn3)ccc(Cl)c2F)C[C@H]2CC[C@@H](c3ncc(-c4ccnc(C[C@H](O)C(F)(F)F)c4F)[nH]3)N12 (single isomer, unassigned) [Example 143, (3S,8aR)-7-(3-chloro-2-fluoro-6-(1H-tetrazol-1-yl)phenyl)-3-(5-(3-fluoro-2-((*S)-3,3,3-trifluoro-2-hydroxypropyl)pyridin-4-yl)-1H-imidazol-2-yl)-2,3,8,8a-tetrahydroindolizin-5(1H)-one]	33	2.4	–
COc1ccc(NC(=O)C2CC2)c(-c2c[nH]c([C@@H]3CC[C@H]4CC(c5c(-n6cnnn6)ccc(Cl)c5F)=CC(=O)N43)n2)c1 [Example 271, N-(2-(2-((3S,8aS)-7-(3-Chloro-2-fluoro-6-(1H-tetrazol-1-yl)phenyl)-5-oxo-1,2,3,5,8,8a-hexahydroindolizin-3-yl)-1H-imidazol-4-yl)-4-methoxyphenyl)cyclopropanecarboxamide]	–	0.8	–
COc1ccc(NC(=O)C2CC2)c(-c2c[nH]c([C@@H]3CC[C@@H]4CC(c5c(-n6cnnn6)ccc(Cl)c5F)=CC(=O)N43)n2)c1 [Example 257, N-[2-[2-[(3S,8aR)-7-[3-Chloro-2-fluoro-6-(tetrazol-1-yl)phenyl]-5-oxo-2,3,8,8a-tetrahydro-1H-indolizin-3-yl]-1H-imidazol-4-yl]-4-methoxy-phenyl]cyclopropanecarboxamide]	–	0.5	–

The next lines start with the values.

IC50 (human plasma kallikrein) [nM]	IC50 (Factor XIa; [1]) [nM]	IC50 (Factor XIa; 5Fam-[…]-K5Tamra substrate 15 μM) [nM]	Structure (SMILES)
18.5	1.3	–	CC1(C)C[C@@H](c2ncc(-c3ccc(N)nc3F)[nH]2)N2C(=O)C=C(c3c(-n4cnnn4)ccc(Cl)c3F)CC21 (stereo partly drawn) [Example 350, (3S)-3-(5-(6-Amino-2-fluoropyridin-3-yl)-1H-imidazol-2-yl)-7-(3-chloro-2-fluoro-6-(1H-tetrazol-1-yl)phenyl)-1,1-dimethyl-2,3,8,8a-tetrahydroindolizin-5(1H)-one]
17.7	–	3.1	COC(=O)Nc1ccccc1-c1cnc([C@@H]2CC[C@@H]3CC(c4c(-n5cnnn5)ccc(Cl)c4F)=CC(=O)N32)[nH]1 (relative stereo) [Example 301, Methyl 2-(2-((3S,8aR*)-7-(3-chloro-2-fluoro-6-(1H-tetrazol-1-yl)phenyl)-5-oxo-1,2,3,5,8,8a-hexahydroindolizin-3-yl)-1H-imidazol-4-yl)phenylcarbamate]
26.8	3.6	–	O=C1C=C(c2c(-n3cc(C(F)(F)F)nn3)ccc(Cl)c2F)C[C@H]2CC[C@@H](c3ncc(-c4c[nH]c5ccncc45)[nH]3)N12 [Example 385, (3S,8aR)-3-(5-(1H-pyrrolo[3,2-c]pyridin-3-yl)-1H-imidazol-2-yl)-7-(3-chloro-2-fluoro-6-(4-(trifluoromethyl)-1H-1,2,3-triazol-1-yl)phenyl)-2,3,8,8a-tetrahydroindolizin-5(1H)-one]
–	0.9	–	COc1ccc(NC(=O)C2CC2)c(-c2c[nH]c([C@@H]3CCC4CC(c5c(-n6cnnn6)ccc(Cl)c5F)=CC(=O)N43)n2)c1 (stereo partly drawn) [Example 279, N-(2-(2-((3S)-7-(3-Chloro-2-fluoro-6-(1H-tetrazol-1-yl)phenyl)-5-oxo-1,2,3,5,8,8a-hexahydroindolizin-3-yl)-1H-imidazol-4-yl)-4-methoxyphenyl)cyclopropanecarboxamide]
